In paper PMC10728895, “Stapled Phd Peptides Inhibit Doc Toxin Induced Growth Arrest in Salmonella” (ACS Chemical Biology, 2023):
Positions of bridges follow the written chain, without caps; N, C: chain ends. Non-standard residues stand in square brackets, D forms with d. Residues, ends and D or L forms follow the SMILES beside them. S5 = C=CCCC[C@](C)(N)C(=O)O; Nle = CCCC[C@H](N)C(=O)O

Key:
[1] = tested on: DocSTm toxin; settings: DocSTm 5 μM, peptide 50 μM; for Average Tm of DocSTm in the presence of peptide: pH 8.0, average ± SD, replicates 3-48 (Table S3)
Method in brief: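 Thermal shift with 5 μM recombinant Doc toxin and 50 μM Phd peptides in 20 mM K2HPO4, 50 mM (NH4)2SO4, pH 8.0, SYPRO Orange 3×, ramped 25–95 °C. Tm from Boltzmann fit; ΔTm is peptide-bound minus free DocSTm Tm, triplicates.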

[2] = tested on: DocSTm (phosphorylation of EF-TuSTm); assay: Dot blot EF-Tu phosphorylation assay; type: biochemical, Salmonella Typhimurium; settings: DocSTm 1 μM, EF-TuSTm 3 μM, peptide 10 μM to 5 nM (3-fold dilutions), 16 h RT, dot blot anti-phosphothreonine; compared at three times the DocSTm concentration; two independent experiments
Experimental: Samples were prepared in assay buffer [50 mM HEPES (pH 7.5), 25 mM (NH4)2SO4, 2 mM TCEP, 2 mM MgCl2, and 1 mM ATP] with a final concentration of recombinant Doc at 1 μM, recombinant EF-Tu at 3 μM, and varying concentrations of synthetic Phd peptides (final concentrations: 10 μM to 5 nM). EF-Tu (3 μM) in assay buffer was used as a negative control (no Doc and Phd peptide), while EF-Tu (3 μM) with Doc (1 μM) in assay buffer was used as a positive control (no Doc inhibitor). The final sample volume was 10 μL. Samples were incubated for 16 h at RT and subsequently spotted on a nitrocellulose membrane. Phosphorylated EF-Tu was detected by immunodecoration using a rabbit monoclonal antiphosphothreonine antibody (Abcam, ab218195) at 1:2000 dilution (1 h at 4 °C), followed by incubation with a goat antirabbit IgG (H + L) HRP conjugate antibody (Advansta) at 1:10,000 dilution (1 h at RT). Chemiluminescence was developed using the HRP Luminata Kit (Merck, WBLUR0100) and captured with an ImageQuant LAS4000 Western blot imaging system (GE HealthCare). Each peptide was tested in two independent experiments.

Compound	Average Tm of DocSTm in the presence of peptide [1] [°C]	Inhibition of EF-TuSTm phosphorylation by DocSTm (concentration needed for full inhibition) [2]	ΔTm (thermal shift) of DocSTm in the presence of peptide ([1]; SYPRO Orange 3×, 20 mM K2HPO4, 50 mM (NH4)2SO4, pH 8.0, average Tm with peptide minus average Tm of free DocSTm, mean ± SD)
CCCC[C@H](NC(=O)[C@H](Cc1c[nH]c2ccccc12)NC(C)=O)C(=O)N[C@@H](CCCNC(=N)N)C(=O)N[C@@H](CC(=O)O)C(=O)N[C@@H](CCC(=O)O)C(=O)N[C@@H](Cc1ccccc1)C(=O)N[C@@H](C)C(=O)N[C@@H](C)C(=O)N[C@H](C(=O)N[C@@H](CCCC)C(=O)N[C@@H](CCCNC(=N)N)C(=O)N[C@H](C(=O)N[C@@H](Cc1c[nH]cn1)C(=O)NCC(=O)N[C@@]1(C)CCCC=CCCC[C@@](C)(C(=O)N[C@@H](CC(C)C)C(=O)N[C@@H](C)C(=O)N[C@@H](CC(=O)O)C(=O)N[C@@H](CCCCN)C(=O)O)NC(=O)[C@H](CCCNC(=N)N)NC(=O)[C@H](CC(C)C)NC(=O)[C@H](CCC(=O)O)NC1=O)C(C)C)[C@@H](C)CC [Peptide 18] (Ac-W[Nle]RDEFAAI[Nle]RVHG[S5]ELR[S5]LADK-OH; staple 15-19)	66.3 ± 0.2	required a higher concentration to achieve full inhibition	–
CCCC[C@H](NC(=O)[C@H](Cc1c[nH]c2ccccc12)NC(C)=O)C(=O)N[C@@H](CCCNC(=N)N)C(=O)N[C@@H](CC(=O)O)C(=O)N[C@@H](CCC(=O)O)C(=O)N[C@@H](Cc1ccccc1)C(=O)N[C@@H](CCCNC(=N)N)C(=O)N[C@@H](C)C(=O)N[C@H](C(=O)N[C@@H](CCCC)C(=O)N[C@@H](CCCNC(=N)N)C(=O)N[C@H](C(=O)N[C@@H](Cc1c[nH]cn1)C(=O)NCC(=O)N[C@@H](CC(N)=O)C(=O)N[C@@H](CCC(=O)O)C(=O)N[C@@H](CC(C)C)C(=O)N[C@@H](CCCNC(=N)N)C(=O)N[C@@H](CCC(=O)O)C(=O)N[C@@H](CC(C)C)C(=O)N[C@@H](C)C(=O)N[C@@H](CC(=O)O)C(=O)N[C@@H](CCCCN)C(=O)O)C(C)C)[C@@H](C)CC [Peptide 19] (Ac-W[Nle]RDEFRAI[Nle]RVHGNELRELADK-OH)	62.5 ± 0.9	fully inhibited	–
CCCC[C@H](NC(=O)[C@H](Cc1c[nH]c2ccccc12)NC(C)=O)C(=O)N[C@@H](CCCNC(=N)N)C(=O)N[C@@]1(C)CCCC=CCCC[C@@](C)(C(=O)N[C@H](C(=O)N[C@@H](CCCC)C(=O)N[C@@H](CCCNC(=N)N)C(=O)N[C@H](C(=O)N[C@@H](Cc2c[nH]cn2)C(=O)NCC(=O)N[C@@H](CC(N)=O)C(=O)N[C@@H](CCC(=O)O)C(=O)N[C@@H](CC(C)C)C(=O)N[C@@H](CCCNC(=N)N)C(=O)N[C@@H](CCC(=O)O)C(=O)N[C@@H](CC(C)C)C(=O)N[C@@H](C)C(=O)N[C@@H](CC(=O)O)C(=O)N[C@@H](CCCCN)C(=O)O)C(C)C)[C@@H](C)CC)NC(=O)[C@H](CCCNC(=N)N)NC(=O)[C@H](Cc2ccccc2)NC(=O)[C@H](CCC(=O)O)NC1=O [Peptide 20] (Ac-W[Nle]R[S5]EFR[S5]I[Nle]RVHGNELRELADK-OH; staple 4-8)	60.4 ± 0.4	required a higher concentration to achieve full inhibition	–
CCCC[C@H](NC(=O)[C@H](Cc1c[nH]c2ccccc12)NC(C)=O)C(=O)N[C@@H](CCCNC(=N)N)C(=O)N[C@@H](CC(=O)O)C(=O)N[C@@H](CCC(=O)O)C(=O)N[C@@H](Cc1ccccc1)C(=O)N[C@@H](CCCNC(=N)N)C(=O)N[C@@H](C)C(=O)N[C@H](C(=O)N[C@@H](CCCC)C(=O)N[C@@H](CCCNC(=N)N)C(=O)N[C@H](C(=O)N[C@@H](Cc1c[nH]cn1)C(=O)NCC(=O)N[C@@]1(C)CCCC=CCCC[C@@](C)(C(=O)N[C@@H](CC(C)C)C(=O)N[C@@H](C)C(=O)N[C@@H](CC(=O)O)C(=O)N[C@@H](CCCCN)C(=O)O)NC(=O)[C@H](CCCNC(=N)N)NC(=O)[C@H](CC(C)C)NC(=O)[C@H](CCC(=O)O)NC1=O)C(C)C)[C@@H](C)CC [Peptide 21] (Ac-W[Nle]RDEFRAI[Nle]RVHG[S5]ELR[S5]LADK-OH; staple 15-19)	61.1 ± 2.5	required a higher concentration to achieve full inhibition	–
CCCC[C@H](NC(=O)[C@H](Cc1c[nH]c2ccccc12)NC(C)=O)C(=O)N[C@@H](CCCNC(=N)N)C(=O)N[C@@H](CC(N)=O)C(=O)N[C@@H](CCC(=O)O)C(=O)N[C@@H](Cc1ccccc1)C(=O)N[C@@H](CCCNC(=N)N)C(=O)N[C@@H](C)C(=O)N[C@H](C(=O)N[C@@H](CCCC)C(=O)N[C@@H](CCCNC(=N)N)C(=O)N[C@H](C(=O)N[C@@H](Cc1c[nH]cn1)C(=O)NCC(=O)N[C@@]1(C)CCCC=CCCC[C@@](C)(C(=O)N[C@@H](CC(C)C)C(=O)N[C@@H](C)C(=O)N[C@@H](CC(N)=O)C(=O)N[C@@H](CCCCN)C(=O)O)NC(=O)[C@H](CCCNC(=N)N)NC(=O)[C@H](CC(C)C)NC(=O)[C@H](CCC(N)=O)NC1=O)C(C)C)[C@@H](C)CC [Peptide 29] (Ac-W[Nle]RNEFRAI[Nle]RVHG[S5]QLR[S5]LANK-OH; staple 15-19)	61.6 ± 0.3	required a higher concentration for full DocSTm inhibition	–
CCCC[C@H](NC(=O)[C@H](Cc1c[nH]c2ccccc12)NC(C)=O)C(=O)N[C@@H](CC(=O)O)C(=O)N[C@@H](CC(N)=O)C(=O)N[C@@H](CCC(=O)O)C(=O)N[C@@H](Cc1ccccc1)C(=O)N[C@@H](C)C(=O)N[C@@H](C)C(=O)N[C@H](C(=O)N[C@@H](CCCC)C(=O)N[C@@H](C)C(=O)N[C@H](C(=O)N[C@@H](Cc1c[nH]cn1)C(=O)NCC(=O)N[C@@H](CCCNC(=N)N)C(=O)N[C@@H](CCC(N)=O)C(=O)N[C@@H](CC(C)C)C(=O)N[C@@H](CCCNC(=N)N)C(=O)N[C@@H](CCCNC(=N)N)C(=O)N[C@@H](CC(C)C)C(=O)N[C@@H](C)C(=O)N[C@@H](CC(N)=O)C(=O)N[C@@H](CCCCN)C(=O)O)C(C)C)[C@@H](C)CC [Peptide 30] (Ac-W[Nle]DNEFAAI[Nle]AVHGRQLRRLANK-OH)	56.7 ± 2.6	higher than three times the DocSTm concentration	≈ 14 °C
CCCC[C@H](NC(=O)[C@H](Cc1c[nH]c2ccccc12)NC(C)=O)C(=O)N[C@@H](CC(N)=O)C(=O)N[C@@H](CC(N)=O)C(=O)N[C@@H](CCC(=O)O)C(=O)N[C@@H](Cc1ccccc1)C(=O)N[C@@H](C)C(=O)N[C@@H](C)C(=O)N[C@H](C(=O)N[C@@H](CCCC)C(=O)N[C@@H](C)C(=O)N[C@H](C(=O)N[C@@H](Cc1c[nH]cn1)C(=O)NCC(=O)N[C@@H](CCCNC(=N)N)C(=O)N[C@@H](CCC(N)=O)C(=O)N[C@@H](CC(C)C)C(=O)N[C@@H](CCCNC(=N)N)C(=O)N[C@@H](CCCNC(=N)N)C(=O)N[C@@H](CC(C)C)C(=O)N[C@@H](C)C(=O)N[C@@H](CC(N)=O)C(=O)N[C@@H](CCCCN)C(=O)O)C(C)C)[C@@H](C)CC [Peptide 31] (Ac-W[Nle]NNEFAAI[Nle]AVHGRQLRRLANK-OH)	61.6 ± 1.9	higher than three times the DocSTm concentration	–
CCCC[C@H](NC(=O)[C@H](Cc1c[nH]c2ccccc12)NC(C)=O)C(=O)N[C@@H](CC(=O)O)C(=O)N[C@@H](CC(N)=O)C(=O)N[C@@H](CCC(=O)O)C(=O)N[C@@H](Cc1ccccc1)C(=O)N[C@@H](C)C(=O)N[C@@H](C)C(=O)N[C@H](C(=O)N[C@@H](CCCC)C(=O)N[C@@H](C)C(=O)N[C@H](C(=O)N[C@@H](Cc1c[nH]cn1)C(=O)NCC(=O)N[C@@H](CCCNC(=N)N)C(=O)N[C@@H](CCC(N)=O)C(=O)N[C@@H](CC(C)C)C(=O)N[C@@H](CCCNC(=N)N)C(=O)N[C@@H](CCCNC(=N)N)C(=O)N[C@@H](CC(C)C)C(=O)N[C@@H](C)C(=O)N[C@@H](CCCNC(=N)N)C(=O)N[C@@H](CCCCN)C(=O)O)C(C)C)[C@@H](C)CC [Peptide 32] (Ac-W[Nle]DNEFAAI[Nle]AVHGRQLRRLARK-OH)	62.6 ± 1.2	close to the activity of peptide 1	–
CCCC[C@H](NC(=O)[C@H](Cc1c[nH]c2ccccc12)NC(C)=O)C(=O)N[C@@H](CC(N)=O)C(=O)N[C@@H](CC(N)=O)C(=O)N[C@@H](CCC(=O)O)C(=O)N[C@@H](Cc1ccccc1)C(=O)N[C@@H](C)C(=O)N[C@@H](C)C(=O)N[C@H](C(=O)N[C@@H](CCCC)C(=O)N[C@@H](C)C(=O)N[C@H](C(=O)N[C@@H](Cc1c[nH]cn1)C(=O)NCC(=O)N[C@@H](CCCNC(=N)N)C(=O)N[C@@H](CCC(N)=O)C(=O)N[C@@H](CC(C)C)C(=O)N[C@@H](CCCNC(=N)N)C(=O)N[C@@H](CCCNC(=N)N)C(=O)N[C@@H](CC(C)C)C(=O)N[C@@H](C)C(=O)N[C@@H](CCCNC(=N)N)C(=O)N[C@@H](CCCCN)C(=O)O)C(C)C)[C@@H](C)CC [Peptide 33] (Ac-W[Nle]NNEFAAI[Nle]AVHGRQLRRLARK-OH)	63.0 ± 0.8	higher than three times the DocSTm concentration	–
